Measured values from patent US4123612A, “7-(5-Am ino-5-carboxyvaleramido)-3-(carbamoyoloxymethyl)-3-cephem-4-carboxylic acid” (Eli Lilly and Company, priority 1974, dated 1978).

How the values were obtained:
[1] = test system: Klebsiella-Aerobacter KA 14; test: Bauer-Kirby disc diffusion, zone of inhibition; type: cell-based
Salmonella typhosa SA 16 = test: Bauer-Kirby disc diffusion, zone of inhibition; settings: Salmonella enterica
Source text: (§1) The evaluation was made on the monoammonium salts of separated factors I and II.

Pseudomonas solanacearum = type: in vivo; settings: 100 ppm.; 0 = no control, 4 = complete control; heavy infestation in controls
Pseudomonas sp. Ps 24 = test: Bauer-Kirby disc diffusion, zone of inhibition; type: cell-based
[2] = test system: Staphylococcus aureus 3074; test: Bauer-Kirby disc diffusion, zone of inhibition; type: cell-based
Pseudomonas sp. Ps 30 = test: Bauer-Kirby disc diffusion, zone of inhibition; type: cell-based
Escherichia coli 0127 = test: Bauer-Kirby disc diffusion, zone of inhibition; type: cell-based
Salmonella typhosa SA 12 = test: Bauer-Kirby disc diffusion, zone of inhibition; settings: Salmonella enterica
Source text: as §1

[3] = test system: Ascaris lumbricoides var. suum; test: anthelmintic evaluation in mice by treated feed, separate factors (Example 13); type: in vivo; settings: 0.05 percent in diet, control 2.66
Source text: The feeds were utilized as diets for separate groups of mice, five mice per group. About twelve hours after initiation of the feeding, the mice were infected with Ascaris lumbricoides var. suum ova. Another group of five mice was fed the non-medicated feed to serve as a control but was similarly infected at the same time with Ascaris lumbricoides var. suum. All groups were fed their respective feed and maintained under normal laboratory conditions for a period of eight days, at which time all mice were taken off feed. On the ninth day, all mice were sacrificed and the lungs examined to determine the presence, and if present, numbers, of lesions of Ascaris lumbricoides var. suum.
In a further evaluation, the monoammonium salts of A16886I and A16886II were separately evaluated for the control of Ascaris lumbricoides var. suum. The evaluations were conducted in accordance with the procedure reported in Example 11 at a concentration in the diet of 0.05 percent.

Proteus sp. PR6 = test: Bauer-Kirby disc diffusion, zone of inhibition; type: cell-based
physchem = settings: 66% dimethylformamide-water
Proteus sp. PR7 = test: Bauer-Kirby disc diffusion, zone of inhibition; type: cell-based
Escherichia coli EC 25 = test: Bauer-Kirby disc diffusion, zone of inhibition; type: cell-based
[4] = test system: Klebsiella-Aerobacter KA 25; test: Bauer-Kirby disc diffusion, zone of inhibition; type: cell-based
[5] = test system: Staphylococcus aureus 3055; test: Bauer-Kirby disc diffusion, zone of inhibition; type: cell-based
solubility = type: physicochemical

COC1(NC(=O)CCCC(N)C(=O)O)C(=O)N2C(C(=O)O)=C(COC(N)=O)CS[C@@H]21 (stereo partly drawn) [A16886I, 7-(5-amino-5-carboxyvaleramido)-3-(carbamoyloxymethyl)-7-methoxy-3-cephem-4-carboxylic acid]
zone of inhibition at 0.5 µg/disc ([1]; 0.5 μg./disc): 0 mm | zone of inhibition at 1 µg/disc ([1]; 1.0 μg./disc): 7.6 mm | zone of inhibition at 2.5 µg/disc ([1]; 2.5 μg./disc): 11.4 mm | zone of inhibition at 5 µg/disc ([1]; 5 μg./disc): 15.4 mm | zone of inhibition at 10 µg/disc ([1]; 10 μg./disc): 18.8 mm | zone of inhibition at 30 µg/disc ([1]; 30 μg./disc): 23 mm | zone of inhibition at 0.5 µg/disc (Salmonella typhosa SA 16): 0 mm | zone of inhibition at 1 µg/disc (Salmonella typhosa SA 16): 9.3 mm | zone of inhibition at 2.5 µg/disc (Salmonella typhosa SA 16): 13.1 mm | zone of inhibition at 5 µg/disc (Salmonella typhosa SA 16): 16.2 mm | zone of inhibition at 10 µg/disc (Salmonella typhosa SA 16): 19.6 mm | zone of inhibition at 30 µg/disc (Salmonella typhosa SA 16): 24.2 mm | Disease Rating (Pseudomonas solanacearum): 4 | zone of inhibition at 0.5 µg/disc (Pseudomonas sp. Ps 24; SP.PS24, 0.5 μg./disc): 0 mm | zone of inhibition at 1 µg/disc (Pseudomonas sp. Ps 24; SP.PS24, 1.0 μg./disc): 10.1 mm | zone of inhibition at 2.5 µg/disc (Pseudomonas sp. Ps 24; SP.PS24, 2.5 μg./disc, * = satellite colonies within zone (Factor II)): 13.2 mm | zone of inhibition at 5 µg/disc (Pseudomonas sp. Ps 24; SP.PS24, 5 μg./disc, * = satellite colonies within zone (Factor II)): 15.7 mm | zone of inhibition at 10 µg/disc (Pseudomonas sp. Ps 24; SP.PS24, 10 μg./disc): 18.2 mm | zone of inhibition at 30 µg/disc (Pseudomonas sp. Ps 24; SP.PS24, 30 μg./disc): 23 mm | zone of inhibition at 0.5 µg/disc ([2]; 0.5 μg./disc): 0 mm | zone of inhibition at 1 µg/disc ([2]; 1.0 μg./disc): 0 mm | zone of inhibition at 2.5 µg/disc ([2]; 2.5 μg./disc): 0 mm | zone of inhibition at 5 µg/disc ([2]; 5 μg./disc): 0 mm | zone of inhibition at 10 µg/disc ([2]; 10 μg./disc): 0 mm | zone of inhibition at 30 µg/disc ([2]; 30 μg./disc): 0 mm | zone of inhibition at 0.5 µg/disc (Pseudomonas sp. Ps 30; SP.PS30, 0.5 μg./disc): 0 mm | zone of inhibition at 1 µg/disc (Pseudomonas sp. Ps 30; SP.PS30, 1.0 μg./disc): 0 mm | zone of inhibition at 2.5 µg/disc (Pseudomonas sp. Ps 30; SP.PS30, 2.5 μg./disc): 0 mm | zone of inhibition at 5 µg/disc (Pseudomonas sp. Ps 30; SP.PS30, 5 μg./disc): 0 mm | zone of inhibition at 10 µg/disc (Pseudomonas sp. Ps 30; SP.PS30, 10 μg./disc): 0 mm | zone of inhibition at 30 µg/disc (Pseudomonas sp. Ps 30; SP.PS30, 30 μg./disc): 0 mm | zone of inhibition at 0.5 µg/disc (Escherichia coli 0127; 0.5 μg./disc): 8.4 mm | zone of inhibition at 1 µg/disc (Escherichia coli 0127; 1.0 μg./disc): 12.7 mm | zone of inhibition at 2.5 µg/disc (Escherichia coli 0127; 2.5 μg./disc): 15.9 mm | zone of inhibition at 5 µg/disc (Escherichia coli 0127; 5 μg./disc): 18.6 mm | zone of inhibition at 10 µg/disc (Escherichia coli 0127; 10 μg./disc): 20.7 mm | zone of inhibition at 30 µg/disc (Escherichia coli 0127; 30 μg./disc): 25.6 mm | zone of inhibition at 0.5 µg/disc (Salmonella typhosa SA 12): 8 mm | zone of inhibition at 1 µg/disc (Salmonella typhosa SA 12): 11.3 mm | zone of inhibition at 2.5 µg/disc (Salmonella typhosa SA 12): 16.9 mm | zone of inhibition at 5 µg/disc (Salmonella typhosa SA 12): 19.9 mm | zone of inhibition at 10 µg/disc (Salmonella typhosa SA 12): 22.8 mm | zone of inhibition at 30 µg/disc (Salmonella typhosa SA 12): 27.2 mm | Average Number of Lung Lesions Per Group [3]: 0.46 | zone of inhibition at 0.5 µg/disc (Proteus sp. PR6; 0.5 μg./disc): 0 mm | zone of inhibition at 1 µg/disc (Proteus sp. PR6; 1.0 μg./disc): 9.9 mm | zone of inhibition at 2.5 µg/disc (Proteus sp. PR6; 2.5 μg./disc): 13.6 mm | zone of inhibition at 5 µg/disc (Proteus sp. PR6; 5 μg./disc): 16.7 mm | zone of inhibition at 10 µg/disc (Proteus sp. PR6; 10 μg./disc): 19 mm | zone of inhibition at 30 µg/disc (Proteus sp. PR6; 30 μg./disc): 23.2 mm | pKa (physchem; pH 6.5, pK'a1): 4.1 | pKa (physchem; pH 6.5, pK'a2): 5.2 | pKa (physchem; pH 6.5, pK'a3): 9.3 | pKa (physchem; pH 6.5, pK'a4): 10.5 | zone of inhibition at 0.5 µg/disc (Proteus sp. PR7; 0.5 μg./disc): 0 mm | zone of inhibition at 1 µg/disc (Proteus sp. PR7; 1.0 μg./disc): 0 mm | zone of inhibition at 2.5 µg/disc (Proteus sp. PR7; 2.5 μg./disc): 0 mm | zone of inhibition at 5 µg/disc (Proteus sp. PR7; 5 μg./disc): 0 mm | zone of inhibition at 10 µg/disc (Proteus sp. PR7; 10 μg./disc): 10.4 mm | zone of inhibition at 30 µg/disc (Proteus sp. PR7; 30 μg./disc): 14 mm | zone of inhibition at 0.5 µg/disc (Escherichia coli EC 25; EC25, 0.5 μg./disc): 0 mm | zone of inhibition at 1 µg/disc (Escherichia coli EC 25; EC25, 1.0 μg./disc): 0 mm | zone of inhibition at 2.5 µg/disc (Escherichia coli EC 25; EC25, 2.5 μg./disc): 9.1 mm | zone of inhibition at 5 µg/disc (Escherichia coli EC 25; EC25, 5 μg./disc): 12.5 mm | zone of inhibition at 10 µg/disc (Escherichia coli EC 25; EC25, 10 μg./disc): 15.1 mm | zone of inhibition at 30 µg/disc (Escherichia coli EC 25; EC25, 30 μg./disc): 19.6 mm | zone of inhibition at 0.5 µg/disc ([4]; 0.5 μg./disc): 0 mm | zone of inhibition at 1 µg/disc ([4]; 1.0 μg./disc): 0 mm | zone of inhibition at 2.5 µg/disc ([4]; 2.5 μg./disc): 9 mm | zone of inhibition at 5 µg/disc ([4]; 5 μg./disc): 12.3 mm | zone of inhibition at 10 µg/disc ([4]; 10 μg./disc): 15.8 mm | zone of inhibition at 30 µg/disc ([4]; 30 μg./disc): 22.1 mm | zone of inhibition at 0.5 µg/disc ([5]; 0.5 μg./disc): 0 mm | zone of inhibition at 1 µg/disc ([5]; 1.0 μg./disc): 0 mm | zone of inhibition at 2.5 µg/disc ([5]; 2.5 μg./disc): 0 mm | zone of inhibition at 5 µg/disc ([5]; 5 μg./disc): 0 mm | zone of inhibition at 10 µg/disc ([5]; 10 μg./disc): 0 mm | zone of inhibition at 30 µg/disc ([5]; 30 μg./disc): 0 mm | solubility in acetonitrile and other organic solvents (solubility; acetonitrile and other organic solvents): essentially insoluble | solubility in lower alkanols (solubility; lower alkanols): slightly soluble | solubility in water (solubility; water): very soluble
